Among the data in the Bradley open melting point set (2014) are melting point values, retold here.

“And” between values parts separate entries of the source, which are not always exact repeats. Equal entries are not always repeated.

As for `C/C=C\CCCCC` [cis-2-octene], the melting point (as a rule, the temperature of the solid-liquid transition) was -100 °C.
Regarding `OC[C@H]1O[C@@H]2O[C@H]3[C@H](O)[C@@H](O)[C@@H](O[C@H]4[C@H](O)[C@@H](O)[C@@H](O[C@H]5[C@H](O)[C@@H](O)[C@@H](O[C@H]6[C@H](O)[C@@H](O)[C@@H](O[C@H]7[C@H](O)[C@@H](O)[C@@H](O[C@H]8[C@H](O)[C@@H](O)[C@@H](O[C@H]1[C@H](O)[C@H]2O)O[C@@H]8CO)O[C@@H]7CO)O[C@@H]6CO)O[C@@H]5CO)O[C@@H]4CO)O[C@@H]3CO`, the melting point turned out to be 290 °C.
Turning to `O=Cc1ccc([N+](=O)[O-])cc1[N+](=O)[O-]` [2,4-dinitrobenzaldehyde] [listing 1 of 2 here], the melting point was 66 °C.
Regarding `CC(=O)c1cnn(-c2ccccc2)c1C` [4-acetyl-5-methyl-1-phenyl-1h-pyrazole], the melting point was found to be 104 °C.
The compound `Brc1ccc2sccc2c1` [5-bromobenzo[b]thiophene] returned a melting point of 46 °C.
The figure for `Cc1cccc(C)c1[N+](=O)[O-]` [2-nitro-1,3-dimethylbenzene] is 16 °C; for `CC#CCCC` [2-hexyne] it is -90 °C; for `CN(CCCC(=O)c1cccnc1)N=O` [4-[Methyl(nitroso)amino]-1-(pyridin-3-yl)butan-1-one] it is 72 °C.
As for `CC12CCC3C(C1CCC2=O)C1(CC2CC(=O)CCC23C)OCCO1` (centres undefined), the melting point is 207 °C.
The compound `COC(=O)c1ccc(C(=O)OC)cc1` [Dimethyl terephthalate] registered a melting point of 141 °C.
The compound `[C-]#[N+]C1CCCCC1` [Cyclohexyl isocyanide] had a melting point of 6 °C.
Consider `Cc1ccc(C)c(/C=C/c2ccc(-c3ccc(/C=C/c4cc(C)ccc4C)cc3)cc2)c1` [4,4'-bis(2,5-dimethylstyryl)biphenyl], for which the melting point amounted to 198 °C.
In the case of `C1OCOCO1` [1,3,5-trioxane], the melting point came out at 61 °C.
The compound `Brc1ccccc1-c1nnn[nH]1` [5-(2-bromophenyl)-1h-tetrazole] yielded a melting point of 182 °C.
The figure for `COc1cccc(F)c1B(O)O` [2-fluoro-6-methoxybenzeneboronic acid] is 125 °C.
Compound `Cn1c(=O)ccc2ccccc21` [1-methyl-2-quinolinone] registered a melting point of 75 °C.
Regarding `O=C(c1ccccc1)C(Cl)Cl` [2,2-dichloroacetophenone], the melting point is 21 °C.
Regarding `N[C@H](CO)Cc1ccccc1` [L-phenylalaninol], the melting point came to 92 °C.
Compound `O=C1CCC(N2C(=O)c3ccccc3C2=O)C(=O)N1` (centres undefined) [thalidomide] yielded a melting point of 270 °C.
Compound `CC(=O)Oc1ccc([N+](=O)[O-])cc1` [4-nitrophenyl acetate] registered a melting point of 78 °C.
`Cn1c(/C(C#N)=N/Nc2cccc(Cl)c2)nc2ccccc21` registered a melting point of 166 °C.
`O=C(c1ccccc1)c1ccccc1Cl` [2-chlorobenzophenone] returned a melting point of 46 °C.
For the compound `O=S(=O)(O)C(F)(F)F` [Trifluoromethanesulfonic acid], the melting point was -40 °C.
Take `Cc1ccc(S(=O)(=O)N=S(C)(C)=O)cc1` [S,S-dimethyl-N-(p-toluenesulfonyl)sulfoximine]: the melting point came to 168 °C.
As to `C1CCSC1` [Tetrahydrothiophene], the melting point is -96 °C.
As to `Cc1nc(N)ccc1Br` [6-amino-3-bromo-2-methylpyridine], the melting point amounted to 81 °C.
Take `O=c1[nH]cc(F)c(=O)[nH]1` [5-fluorouracil]: the melting point is 283 °C.
With `CCCOC(=O)c1ccc(O)cc1` [propyl paraben], the melting point is 97 °C and 96.5 °C (2×) and 96 °C.
Take `Cc1c(C)c(C)c(Br)c(C)c1C` [1-bromo-2,3,4,5,6-pentamethylbenzene]: the melting point came to 165 °C.
The figure for `CCC1OC(=O)C(C)C(OC2CC(C)(OC)C(O)C(C)O2)C(C)C(OC2OC(C)CC(N(C)C)C2O)C(C)(O)CC(C)C(=O)C(C)C(O)C1(C)O` (centres undefined) [erythromycin] is 135 °C; for `CCOC(=O)c1ccc2c(c1)no[n+]2[O-]` [ethyl benzofuroxan-5-carboxylate] it is 67 °C; for `Cc1ccc([N+](=O)[O-])cc1Br` [2-bromo-4-nitrotoluene] it is 76 °C.
For `COc1c(OC)c(=O)c1=O` [3,4-dimethoxy-3-cyclobutene-1,2-dione], the melting point was 55 °C.
With `Cc1c(Cl)cccc1C#N` [3-chloro-2-methylbenzonitrile], the melting point came to 22 °C.
The figure for `ClC(Cl)(Cl)C(Cl)(Cl)Cl` [Hexachloroethane] is 192 °C; for `CC(Br)C(C)(C)C` (centres undefined) [2-bromo-3,3-dimethylbutane] it is 25 °C; for `COc1ccc(C(=O)O)cc1` [4-methoxybenzoic acid] it is 184 °C.
Take `O=C(/C=C/c1ccccc1[N+](=O)[O-])c1cccc(O)c1` [(2E)-1-(3-Hydroxyphenyl)-3-(2-nitrophenyl)-2-propen-1-one]: the melting point amounted to 188 °C.
For the compound `O=S(=O)=O` [Oxosulfane dioxide], the melting point worked out at 16.8 °C.
`O=C(O)C(F)c1ccccc1` (stereo not drawn) [alpha-fluorophenylacetic acid] showed a melting point of 80 °C.
Compound `CC(=O)/C=C/c1ccccc1` [trans-4-phenyl-3-buten-2-one] registered a melting point of 41 °C.
On to `CCCCCCO` [Hexan-1-ol], for which the melting point was -52 °C.
Compound `[C-]#[N+]c1c(C)cccc1C` [2,6-dimethylphenyl isocyanide] registered a melting point of 74 °C.
For `Cn1ccnc1S` [2-mercapto-1-methylimidazole], the melting point was 146 °C.
In turn, `CN(C)[C@@H]1C(O)=C(C(N)=O)C(=O)[C@@]2(O)C(O)=C3C(=O)c4c(O)cccc4[C@@](C)(O)[C@H]3[C@H](O)[C@@H]12` [Oxytetracycline] returned a melting point of 183 °C.
The figure for `CC(=O)c1cccc(B(O)O)c1` [3-acetylbenzeneboronic acid] is 203 °C; for `N#Cc1ccccc1` [Benzonitrile] it is -13 °C.
Regarding `CCC(C)I` (centres undefined) [2-iodobutane], the melting point was -104 °C.
In the case of `O=Cc1ccc([N+](=O)[O-])cc1[N+](=O)[O-]` [2,4-dinitrobenzaldehyde] [listing 2 of 2 here] it was 67 °C.
For `CC(C)(C)N` [tert-butylamine], the melting point is -67 °C.
Compound `O=C(c1ccncc1)c1ccc(Cl)cc1` [4-(4-chlorobenzoyl)pyridine] gave a melting point of 108 °C.
In the case of `CC1COc2c(N3CCN(C)CC3)c(F)cc3c(=O)c(C(=O)O)cn1c23` (centres undefined) [Ofloxacin] it was 254 °C; in that of `CCOC(=O)Nc1cccc([N+](=O)[O-])c1[N+](=O)[O-]` [ethyl (2,3-dinitrophenyl)carbamate], 103 °C.
Take `CCCCCCCCN(CCCCCCCC)CCCCCCCC` [tri-n-octylamine]: the melting point was -39 °C.
The figure for `O=C(OCc1ccccc1)c1ccc(B(O)O)cc1` [4-(benzyloxycarbonyl)benzeneboronic acid] is 190 °C.
Take `Oc1ccc2[nH]ccc2c1` [5-hydroxyindole]: the melting point was 109 °C.
In turn, `[O-]/[N+](=N\c1ccccc1)c1ccc(/N=N/c2ccc(/[N+]([O-])=N/c3ccccc3)cc2)cc1` [(E)-bis{4-[(Z)-phenyl-NNO-azoxy]phenyl}diazene] returned a melting point of 139 °C.
On to `O=C1C=CC(=O)C2CC3=C(CC4=C(C3)CC3C(=O)C=CC(=O)C3C4)CC12` (centres undefined), for which the melting point was 338 °C.
For the compound `COc1ccc(C=O)cn1` [6-methoxypyridine-3-carboxaldehyde], the melting point came out at 51 °C.
Consider `Cc1cccc(C)c1C` [1,2,3-Trimethylbenzene], for which the melting point was -25 °C.
`CCOC(=O)c1c(SC)n[nH]c1N` showed a melting point of 143 °C.
Turning to `c1ccc2c(c1)cc1ccc3cccc4ccc2c1c34` [Benzo[a]pyrene], the melting point stood at 176 °C.
Compound `Cc1ccc2c(c1)no[n+]2[O-]` [5-Methylbenzofurazan oxide] registered a melting point of 96 °C.
The compound `CC(=O)Nc1cc(C)ccc1O` [2'-hydroxy-5'-methylacetanilide] had a melting point of 149 °C.
In the case of `CC(N1CCOCC1)S(=O)(=O)O` (centres undefined) [1-(Morpholin-4-yl)ethanesulfonic acid], the melting point is 243 °C.
`CC(=O)OCC(=O)c1ccccc1` [2-acetoxy_acetophenone] gave a melting point of 89 °C.
With `Oc1cccc(N2CCOCC2)c1` [3-(4-morpholinyl)phenol], the melting point turned out to be 130 °C.
`Oc1c(Cl)cc(Cl)c2cccnc12` [5,7-dichloro-8-hydroxyquinoline] displayed a melting point of 181 °C.
In the case of `Brc1ccnc(-c2ccc(Br)nc2)c1` [4,6'-dibromo-2,3'-bipyridine] it was 129 °C; in that of `CCOC(=O)CC` [ethyl_propionate], -73 °C.
Turning to `C=C(C)C(=O)OC` [methyl methacrylate], the melting point was -48 °C.
For the compound `CC(C)(C)OC(=O)N[C@@H](Cc1ccc(Br)cc1)C(=O)O` [N-boc-4-bromo-L-phenylalanine], the melting point came out at 119 °C.
In the case of `CC(=O)c1ccc(Cl)cc1` [4'-chloroacetophenone] it was 19 °C; in that of `O=C(O)c1cccc(CO)c1` [m-hydroxymethyl_benzoic_acid], 115 °C; in that of `Cc1cccc(C(C)(C)C)c1` [3-tert-butyltoluene], -41 °C.
Turning to `Cc1ccc(N)cc1Cl` [3-Chloro-4-methylaniline], the melting point came out at 26 °C.
As for `Nc1ccc(C(=O)O)c(O)c1` [Aminosalicylic Acid], the melting point is 150 °C.
As to `COc1ccc(Cl)c(Cl)c1Cl` [1-Methoxy-2,3,4-trichlorobenzene], the melting point is 70 °C.
For `O=C(O)CI` [iodoacetic acid], the melting point was 81 °C.
`CC(C)c1ccc(O)cc1` [4-isopropylphenol]: the melting point was 60 °C and 61 °C.
Compound `Cc1ccc(N)cc1` [p-toluidine] showed a melting point of 44 °C.
Take `Brc1ccccc1-c1ccccc1` [2-bromobiphenyl]: the melting point was found to be 2 °C.
In the case of `O=Cc1csnn1` [1,2,3-thiadiazole-4-carboxaldehyde] it was 85 °C.
Turning to `O=P(O)(O)CP(=O)(O)O` [methylenediphosphonic acid], the melting point was found to be 203 °C.
